“Also recorded” adds a separate entry of the source. Where two headings read alike, the source gives them in different places.
Tests used:
[1] = system: mice with chronic constriction injury (CCI) to the sciatic nerve / naive mice; test: Thermal hyperalgesia (Hargreaves, paw withdrawal latency) after intrathecal drug treatment; type: in vivo, mouse; details: for reversal of thermal hyperalgesia ipsilateral to CCI: wild type mice, intrathecal in 10 μl, (R)-CPP 100 ρmol, peptide 1 n mole, K-93/KN-92 120 pmol
Protocol: (§1) Animals were initially anaesthetised with sodium pentobarbital (Sagatal; 0.01 ml/kg (1:4 in saline, i.p.; Rhône Mérieux, UK) and this was then supplemented with halothane O2 (Zeneca, UK). Under aseptic conditions, using a variation of the method of Bennett and Xie for rat [G. J. Bennett and Y. K. Xie, Pain 33, 87 (1988)], the sciatic nerve was exposed at the mid-thigh level proximal to the sciatic trifurcation. Three chromic catgut ligatures (5.0; Ethicon, Edinburgh) separated by 1 mm were tied loosely to constrict the […] as viewed under 40× magnification. Vascular supply was not compromised. The overlying muscle and skin were sutured and the animals were placed in a recovery cage.
(§2) Animals were tested for 6 days prior to surgery in order to establish stable baseline levels for each test and then every one or two days post-operatively (PO). The responses were compared to the average of the pre-surgery values and the contralateral control. The animals were examined daily to ensure that no autotomy was present.
Thermal hyperalgesia was monitored using Hargreaves' Thermal Stimulator (Linton Instruments, USA). The stimulus was applied to the mid-plantar surface of the hind paw. The withdrawal response was characterised as a brief paw flick. The latency of withdrawal was recorded for the ipsilateral (injured) and the contralateral hindpaws. The means of between 5 and 10 readings were recorded at 3-5 min intervals to ensure no hypersensitivity to the test was established. Mean basal values for pre-operative paw withdrawal latency were typically around 5 sec.
(§3) Baseline measurements were recorded for thermal hyperalgesia (Hargreaves' test) and mechanical allodynia (von Frey filament test) in mice which had undergone the chronic constriction injury and were at the peak of neuropathy. Mice were anaesthetised with halothane and O2. Drugs were injected intrathecally, in 10 μl saline, at the L4 level of the spinal cord using a 25 μl microsyringe [J. L. Hylden and G. L. Wilcox, Eur. J. Pharmacol., 67, 313 (1980)]. The experimenter was blind to the content of the injections so as to eliminate bias, and dye injections (Pontamine Sky Blue) were performed to determine the site of injection. 15 minutes following injection, mice were re-tested using the same procedures and measurements were taken to determine the effects of drug on hyperalgesia and allodynia. Animals were tested every 5 minutes until readings returned to baseline levels.

[2] = system: mice with chronic constriction injury (CCI) to the sciatic nerve / naive mice; test: Mechanical allodynia (von Frey filaments, paw withdrawal threshold) after intrathecal drug treatment; type: in vivo, mouse; details: for reversal of mechanical allodynia ipsilateral to CCI: wild type mice, intrathecal in 10 μl, (R)-CPP 100 ρmol, peptide 1 n mole, K-93/KN-92 120 pmol
Protocol: as §1, §2
Mechanical allodynia was measured as the withdrawal threshold to calibrated Semmes-Weinstein von Frey filaments (Stoelting, Wood Dale, Ill.) with a bending force of 0.22-84.96 g. The mice were placed in a small rectangular cage. The filaments were applied to the mid-plantar surface of the hindpaw from beneath until the filament started to bend. This stimulus was repeated 8-10 times at 1-2 sec intervals for both the injured and uninjured hindpaws. The mean threshold required to elicit a withdrawal response was recorded. The filaments were applied in ascending order, and a response was characterised as a brief paw flick. The withdrawal threshold was defined from the lower of two consecutive von Frey filaments that elicited a response. Data were expressed as the threshold indentation pressure (i.e. the bending force/the cross-sectional area at the tip of the filament). Mean basal values for pre-operative paw withdrawal threshold were typically around 600 mN.mm^−2.
as §3

CaM kinase II = test: Ex vivo CaM kinase II activity assay after topical application to dorsal spinal cord; type: in vivo, mouse; details: for activation of constitutive CaM kinase II activity, wild type versus PSD-95 mutant: naive mice, topical 15 min, NMDA 500 μM with glycine 100 μM, ionomycin 10 μM
Protocol: Following lumbar L3-6 laminectomy under anaesthesia, mice, which in some cases had previously received chronic constriction injury, were treated by topical application of agents to the dorsal surface of the spinal cord. […] Constitutive (autophosphorylated) and Ca^2+/CM-elicited activity of CaM II kinase [P. I. Hanson et al., Neuron 3, 59 (1989); P. M. Jones and S. J. Persaud, Am. J. Physiol. 274, E708 (1998)] were measured by the following procedure. Samples were rapidly homogenised on ice in 20 mM Na HEPES pH 7.5 with 5% glycerol, 1 mM EGTA, 1 mM dithiothreitol, 1 mM AEBSF, 2 μg.ml^−1 aprotinin, 10 μg.ml^−1 leupeptin, 2 μg.ml^−1 pepstatin, 50 μg.ml^−1 soybean trypsin inhibitor, 25 mM Na β-glycerophosphate, 1 mM Na orthovanadate, 1 mM Na F, 1 μM calyculin A, 1 μM cypermethrin. Following a 30 min incubation on ice with 0.25% CHAPS and clarification, samples were incubated at 4° C. for 2 hours with 3 μg.ml^−1 mouse anti-α-CaM kinase II IgG (clone CBα-2; Zymed) and then with excess Protein G-Sepharose for 1 hour. Aliquots of washed immunoprecipitate were incubated for 20 min at 30° C. (linear range of assay) with 50 μM autocamtide-2, 50 μM ATP (with [^33P] γ-ATP to 0.25 μCi/tube), 10 mM MgCl2 and 8 μg.ml^−1 purified bovine calmodulin (Sigma), in the presence of 0.5 μM PKC-α19-31 and 0.5 μM PKI6-22 amide (to suppress any PKC and PKA-mediated activity respectively) before termination with cold TCA (to 10%), centrifugation and spotting of the supernatant onto P81 phospho-cellulose paper.
Samples were washed extensively in 75 mM H3PO4 and dried before scintillation counting. Constitutive and maximal Ca^2+-evoked activity were measured in the absence and presence of 2 mM CaCl2 respectively. Zero time and substrate-free blanks were less than 2% of maximal activity. Parallel immunoblotting experiments were attempted with phospho-specific antisera for Thr^286-CaM kinase II (the key autophosphorylation site), but gave insufficient signal:noise ratios for further use.

NMDA receptors = details: rats, cited from earlier work
[3] = target: multi-protein complex comprising NMDA receptor (NR1, NR2B, PSD-95) (Mus musculus, UniProt P35438+Q01097); test: Ligand affinity chromatography of mouse brain DOC extracts (SDS-PAGE, Western blotting); type: binding
[4] = system: hippocampal CA1 region slices (MEK inhibitor)
Text: Low resistance glass microelectrodes filled with ACSF were placed into stratum radiatum of the hippocampal CA1 region to record field excitatory postsynaptic potentials (fEPSPs) evoked by presynaptic stimulation pulses delivered once every 50 seconds to the Schaffer collateral/commissural fibers via a bipolar nichrome wire stimulating electrode. At the beginning of each experiment the intensity of presynaptic fiber stimulation was adjusted to evoke fEPSPs that were approximately half of the maximal fEPSP amplitude that could be evoked by strong intensity stimulation. High-frequency stimulation-induced LTP was elicited using two trains of 100 Hz stimulation (1 sec. in duration) delivered with an inter-train interval of 10 seconds. To elicit saturating levels of LTP we delivered 6, one-second-long trains of 100 Hz stimulation with an inter-train interval of 5 minutes. For statistical comparisons (unpaired t-tests, two-tailed, N=number of animals) we compared the average amount of potentiation present 55 to 60 minutes after the first high-frequency stimulation train or 40 to 45 minutes after low-frequency trains of stimulation. […] Similar results were obtained with both internal solutions and the results were combined. […] All experiments and initial data analysis were performed blind except for experiments done on 3 H-Ras^−/− mutant mice. […] All values are reported as mean±SEM.

[5] = system: mouse brain proteins / multi-protein complex (PSD-95, NMDA receptor); test: Peptide affinity chromatography of mouse brain DOC extracts (SDS-PAGE); type: binding; details: 0.5 ml mouse brain DOC extract, Coomassie stained SDS-PAGE
Protocol: Peptides were solubilised and coupled to affigel-10 in methanol at 5 mg/ml resin for 3 days at 4° C. with constant agitation and residual active side chains were blocked with 0.5 M Tris pH8.8 for 1 day at 4° C. followed by transfer of the resin to PBS.
Initial small-scale experiments were done using 0.5 ml brain DOC extract and 25 μl affigel-10 immobilised peptides. The resins were washed four times with 0.5 ml cold DOC buffer after an incubation period of four hours at 4° C. with constant agitation followed by SDS-PAGE analysis. Large scale samples were prepared by adding 0.5 ml NR2B 1477-1482 peptide derivatised affigel-10 with 50 ml DOC extract followed by an incubation overnight at 4° C. with constant agitation. The resin was then transferred into a chromatography column and washed to baseline with approximately 100 ml cold DOC buffer. Bound proteins were released from the resin by boiling for 30 minutes in 4% SDS-containing buffer and 20 μl aliquots were subsequently used for SDS-PAGE analysis and Western blotting (see Example 2).

[6] = CCI wild type mice, intrathecal
[7] = ligand coupled to PharmaLink resin
[8] = naive PSD-95 mutant mice, intrathecal NMDA
[9] = naive wild type mice, intrathecal NMDA 0.25 nmol in 10μl

## O=C(O)[C@H]1CN(CCCP(=O)(O)O)CCN1 [(R)-CPP]
[1]; [6]
  effect on contralateral responses (thermal): no effect
[1]; PSD-95 mutant mice with CCI, intrathecal 100 ρmol in 10 μl
  effect on paw withdrawal latency in PSD-95 mutants: had no effect; also recorded: unaffected
[1]
  reversal of thermal hyperalgesia ipsilateral to CCI: completely reversed
[2]; [6]
  effect on contralateral responses (mechanical): In no case was there any significant effect
[2]; PSD-95 mutant mice with CCI, intrathecal
  effect on paw withdrawal threshold in PSD-95 mutants: unaffected
[2]; naive or sham-operated wild type or PSD-95 mutant mice (data not shown)
  effect in naive or sham-operated mice: had no effect
[2]
  reversal of mechanical allodynia ipsilateral to CCI: completely reversed
CaM kinase II; wild type mice with CCI, topical application
  effect on elevated proportion of constitutive CaM kinase II activity ipsilateral to CCI: entirely prevented

## NC(CCCP(=O)(O)O)C(=O)O (stereo not drawn) [AP5]
NMDA receptors; both types of task
  effect on new learning: severely impaired
NMDA receptors
  effect on retention of a previously learned olfactory discrimination or watermaze task: no effect

## NC(N)=NCCCCN=C(N)N [Arcaine]
[3]; ligand coupled to affigel-10
  proteins / multi-protein complex retained on immobilised ligand: substantial amount of protein did interact with immobilised Arcaine, including NR1, NR2B and PSD-95

## NC(CCCP(=O)(O)O)C(=O)O [D-AP5]
[3]; [7]
  proteins / multi-protein complex retained on immobilised ligand: bound to an array of protein species
[3]; ligand coupled to affigel-10
  proteins / multi-protein complex retained on immobilised ligand: ineffective in the isolation of any protein

## COc1ccc2c(c1)[C@]13CCCC[C@@H]1[C@H](C2)N(C)CC3 [Dextromethorphan]
[3]
  proteins / multi-protein complex retained on immobilised ligand: only marginal amounts of both NR1 and NR2B were present, but surprisingly a comparatively large amount of PSD-95

## NC1CCN(O)C1=O (stereo not drawn) [HA-966, 3-amino-1-hydroxy-2-pyrrolidone]
[3]; [7]
  proteins / multi-protein complex retained on immobilised ligand: found positive for NMDA receptor channel components and the attached PSD-95
[3]; ligand coupled to affigel-10
  proteins / multi-protein complex retained on immobilised ligand: found positive for NMDA receptor channel components and the attached PSD-95

## CC(C(O)c1ccc(O)cc1)N1CCC(Cc2ccccc2)CC1 (stereo not drawn) [Ifenprodil]
[3]
  proteins / multi-protein complex retained on immobilised ligand: capable of binding the multi-protein complex and many other molecules, though to a slightly lower degree than the Arcaine resin

## COc1ccc(S(=O)(=O)Nc2ccccc2CN(C)C/C=C/c2ccc(Cl)cc2)cc1 [KN92]
[1]
  reversal of thermal hyperalgesia ipsilateral to CCI: to a smaller extent

## COc1ccc(S(=O)(=O)N(CCO)c2ccccc2CN(C)C/C=C/c2ccc(Cl)cc2)cc1 [KN93]
[1]
  reversal of thermal hyperalgesia ipsilateral to CCI: reversal
[2]
  reversal of mechanical allodynia ipsilateral to CCI: reversal

## NC(=O)C[C@H](N)C(=O)O [L-Asparagine]
[3]; ligand coupled to affigel-10
  proteins / multi-protein complex retained on immobilised ligand: bound to an array of protein species

## CN[C@H](CC(=O)O)C(=O)O [NMDA, N-methyl-D-aspartate]
[1]; [8]
  effect on thermal behavioural responses in PSD-95 mutants: unaffected
[1]; [9]
  induction of thermal hyperalgesia-like behavioural change: bilaterally mimicked
[2]; [8]
  effect on mechanical behavioural responses in PSD-95 mutants: unaffected
[2]; [9]
  induction of mechanical allodynia-like behavioural change: bilaterally mimicked
CaM kinase II
  activation of constitutive CaM kinase II activity, wild type versus PSD-95 mutant: equivalent
[3]
  proteins / multi-protein complex retained on immobilised ligand: only marginal quantities of the multi-protein complex were retained

## N#CC(=C(/N)Sc1ccccc1N)/C(C#N)=C(\N)Sc1ccccc1N [U0126]
[4]; slices from PSD-95 mutant mice continuously exposed to U0126, N=14 slices
  fEPSPs after 5 Hz stimulation: 270±12 % of baseline
[4]; wild type slices, 20 μM
  effect on induction of LTP by a brief train of 5 Hz stimulation: strongly suppressed the induction of LTP
[4]; wild type slices, continuously bathed in U0126 (20 *M) at least 60 min before 5 Hz stimulation, N=11 slices
  fEPSPs after 5 Hz stimulation: 137±9 % of baseline

## C[C@H](CCC(=O)O)C[C@H](C)C[C@H](C)C(=O)/C=C(\O)[C@H](C)C[C@H](C)C/C=C/[C@@H](C)[C@@H](O)[C@@H](C)[C@@H](O)C[C@@H]1CC[C@@](C)([C@H]2CC[C@@](C)([C@@H](C)O)O2)O1 [ionomycin]
CaM kinase II
  activation of constitutive CaM kinase II activity, wild type versus PSD-95 mutant: equivalent

## KLSSIESDV [NR2B (1474-1482), NR2B C-terminal peptide]
[5]
  proteins bound by peptide covalently linked to affigel-10: did not show any binding pattern similar to the slightly shorter one

## RRAIEREEGQLQLCSRHRES [NR1 C-terminal peptide, last 20 amino acids of NR1, 919-938]
[5]
  proteins bound by peptide covalently linked to affigel-10: showed no evident binding pattern

## SIESDV [NR2B (1477-1482)]
[5]
  proteins bound by peptide covalently linked to affigel-10: revealed several bands at 75 and 100 kDa; also recorded: capable of not only purifying PSD-95 and other members of this family, but also the NMDA receptor itself

## myristoyl-autocamtide 2-related inhibitory peptide
[1]
  reversal of thermal hyperalgesia ipsilateral to CCI: reversal
[2]
  reversal of mechanical allodynia ipsilateral to CCI: reversal

Reference: patent US20030176651A1, “Multiprotein-complex comprising a nmda receptor and uses thereof” (priority 2000, published 2003)
